Results from patent publication US12378211B2, “Carbonic anhydrase inhibitors and antibiotics against multidrug resistant bacteria” (Purdue Research Foundation, priority 2018, dated 2025).
Converted amounts (≈) assume the structure as drawn. Like-named read-outs stand apart in the source and are kept apart here.

How the values were obtained:
[1] = tested on: MRSA NRS 384 (MRSA USA300); assay: MIC against Staphylococci, broth microdilution; format: cell-based, Staphylococcus aureus; conditions: Staphylococcus aureus; TSB; read-out: MIC
Method: The minimum inhibitory concentrations (MICs) of the compounds and control drugs were determined using the broth microdilution method, according to guidelines outlined by the Clinical and Laboratory Standards Institute (CLSI) 1. Staphylococci strains were grown aerobically overnight on tryptone soya agar plates at 37° C., afterwards a bacterial solution equivalent to 0.5 McFarland standard was prepared and diluted in tryptone soy broth (TSB) to achieve a bacterial concentration of about 5×10^5 CFU/mL and seeded in 96-well well plates. Compounds and control drugs were added in the first row of the 96-well plates and serially diluted along the plates. Plates were then incubated aerobically at 37° C. for 18-20 hours. MICs reported in Table 2 are the minimum concentration of the compounds/control drugs that could inhibit completely the visual growth of the bacteria.

[2] = tested on: Enterococcus fecalis Strain SF 24397 NR31970; assay: MIC, broth microdilution in TSB; format: cell-based; conditions: Enterococcus, TSB
How it was run: (§1)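 Strains were grown aerobically overnight on tryptone soya agar at 37° C, adjusted to 0.5 McFarland and diluted to about 5×10^5 CFU/mL. Compounds were serially diluted across the wells, and plates were incubated aerobically at 37° C for 18-20 hours.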

[3] = tested on: Enterococcus faecium Patient #2-1-NR-31909; assay: MIC, broth microdilution in TSB; format: cell-based; conditions: Enterococcus faecium, TSB
How it was run: as §1

[4] = tested on: Enterococcus fecalis Strain SF24413 NR31971; assay: MIC, broth microdilution in TSB; format: cell-based; conditions: Enterococcus, TSB
How it was run: as §1

[5] = tested on: Enterococcus faecium Patient #3-1 NR-31912; assay: MIC, broth microdilution in TSB; format: cell-based; conditions: Enterococcus faecium, TSB
How it was run: as §1

[6] = tested on: Enterococcus fecalis Strain MMH594-NR31975; assay: MIC, broth microdilution in TSB; format: cell-based; conditions: Enterococcus, TSB
How it was run: as §1

[7] = tested on: Enterococcus faecalis—S613 HM-334; assay: MIC, broth microdilution in TSB; format: cell-based; conditions: Enterococcus, TSB
How it was run: as §1

[8] = tested on: Enterococcus faecium E417-HM-965; assay: MIC, broth microdilution in TSB; format: cell-based; conditions: Enterococcus faecium, E417HM965, TSB
How it was run: as §1

[9] = tested on: Enterococcus fecalis Strain SF 28073-NR31972; assay: MIC, broth microdilution in TSB; format: cell-based; conditions: Enterococcus, TSB
How it was run: as §1

[10] = tested on: Bifidobacterium longum subsp. Longum—44B HM 845; assay: MIC against human normal gut microbiota; format: cell-based; conditions: Bifidobacterium longum; BHIS broth, anaerobic, 48 hours; read-out: MIC
Method: (§2) Three different bacterial strains were used in this experiment; Bifidobacterium (anaerobic Gram positive bacteria), Bacteroides (anaerobic Gram negative bacteria) and Lactobacillus (microaerophilic Gram positive bacteria). Bifidobacterium and Bacteroides were first grown for 48 hours at 37° C., anaerobically using brain heart infusion supplemented (BHIS) agar (Brain heart infusion agar supplemented with hemin, vitamin K and L-cysteine). Lactobacillus was cultivated on MRS agar and incubated in presence of 5% CO2 for 48 hours at 37° C. Each bacterium was suspended in phosphate buffered saline (PBS) to produce a suspension with optical density that matches 0.5 McFarland standard and diluted in brain heart infusion supplemented broth (for Bifidobacterium and Bacteroides) or in MRS broth (for Lactobacillus) to achieve bacterial concentration of approximately 5×10^5 CFU/ml. Bacteria were then seeded in 96-well plates containing serial dilutions of the compounds and incubated as mentioned previously for 48 hours.

[11] = tested on: Lactobacillus casei ATCC 334; assay: MIC against human normal gut microbiota; format: cell-based; conditions: Lacticaseibacillus casei, ATCC334; MRS broth, 5% CO2, 48 hours; read-out: MIC
Method: as §2

[12] = tested on: Bacteroides fragilis—CL07T00C01 HIM-709; assay: MIC against human normal gut microbiota; format: cell-based; conditions: Bacteroides; BHIS broth, anaerobic, 48 hours; read-out: MIC
Method: as §2

[13] = tested on: Bacteroides dorei—CL02T12C06 HM-719; assay: MIC against human normal gut microbiota; format: cell-based; conditions: Bacteroides; BHIS broth, anaerobic, 48 hours; read-out: MIC
Method: as §2

[14] = tested on: Bifidobacterium breve—JCP7499 HIM 1120; assay: MIC against human normal gut microbiota; format: cell-based; conditions: Bifidobacterium; BHIS broth, anaerobic, 48 hours; read-out: MIC
Method: as §2

[15] = tested on: Lactobacillus gasseri EX336960VC03 HIM-400; assay: MIC against human normal gut microbiota; format: cell-based; conditions: Lactobacillus gasseri; MRS broth, 5% CO2, 48 hours; read-out: MIC
Method: as §2

[16] = tested on: Mutant-4 of Enterococcus fecalis NR 31975; assay: microbe, parasite or virus in culture; format: cell-based; conditions: Enterococcus
[17] = tested on: Mutant-9 of Enterococcus fecalis NR 31975; assay: microbe, parasite or virus in culture; format: cell-based; conditions: Enterococcus
[18] = tested on: Mutant-8 of Enterococcus fecalis NR 31975; assay: microbe, parasite or virus in culture; format: cell-based; conditions: Enterococcus
[19] = tested on: Mutant-12 of Enterococcus fecalis NR 31975; assay: microbe, parasite or virus in culture; format: cell-based; conditions: Enterococcus
[20] = tested on: Mutant-11 of Enterococcus fecalis NR 31975; assay: microbe, parasite or virus in culture; format: cell-based; conditions: Enterococcus
[21] = tested on: Mutant-13 of Enterococcus fecalis NR 31975; assay: microbe, parasite or virus in culture; format: cell-based; conditions: Enterococcus
[22] = tested on: Mutant-15 of Enterococcus fecalis NR 31975; assay: microbe, parasite or virus in culture; format: cell-based; conditions: Enterococcus
[23] = tested on: Mutant-7 of Enterococcus fecalis NR 31975; assay: microbe, parasite or virus in culture; format: cell-based; conditions: Enterococcus
[24] = tested on: Mutant-3 of Enterococcus fecalis NR 31975; assay: microbe, parasite or virus in culture; format: cell-based; conditions: Enterococcus
[25] = tested on: Mutant-14 of Enterococcus fecalis NR 31975; assay: microbe, parasite or virus in culture; format: cell-based; conditions: Enterococcus

Row | Structure (SMILES) | MIC [1] | MIC ([2]; Table 1, read-out: MIC) | MIC ([2]; Table 7, read-out: MIC in TSB) | MIC ([3]; Table 1, read-out: MIC) | MIC ([3]; Table 7, read-out: MIC in TSB) | MIC ([4]; Table 1, read-out: MIC) | MIC ([4]; Table 7, read-out: MIC in TSB) | MIC ([5]; Table 1, read-out: MIC) | MIC ([6]; Table 1, read-out: MIC) | MIC ([6]; Table 7, read-out: MIC in TSB) | MIC ([7]; Table 1, read-out: MIC) | MIC ([7]; Table 7, read-out: MIC in TSB) | MIC ([9]; Table 1, read-out: MIC) | MIC ([9]; Table 7, read-out: MIC in TSB) | MIC [10] | MIC [11] | MIC [12] | MIC [13] | MIC [14] | MIC [15] | also measured
1 | CC(C)C(=O)Nc1nnc(S(N)(=O)=O)s1 [CAI0011, N-(5-Sulfamoyl-1,3,4-thiadiazol-2-yl) isobutyramide] | > 64 µg/mL | 2 µg/mL (≈ 7.99 µM) | 2 µg/mL (≈ 7.99 µM) | 1 µg/mL (≈ 4 µM) | 1 µg/mL (≈ 4 µM) | 2 µg/mL (≈ 7.99 µM) | 2 µg/mL (≈ 7.99 µM) | 1 µg/mL (≈ 4 µM) | 2 µg/mL (≈ 7.99 µM) | 2 µg/mL (≈ 7.99 µM) | 2 µg/mL (≈ 7.99 µM) | 2 µg/mL (≈ 7.99 µM) | 2 µg/mL (≈ 7.99 µM) | 2 µg/mL (≈ 7.99 µM) | > 64 µg/mL | > 64 µg/mL | > 64 µg/mL | > 64 µg/mL | > 64 µg/mL | > 64 µg/mL | MIC ([5]; Table 7, read-out: MIC in TSB): 1 µg/mL (≈ 4 µM); MIC ([8]; Table 1, read-out: MIC): 1 µg/mL (≈ 4 µM); MIC ([8]; Table 7, read-out: MIC in TSB): 1 µg/mL (≈ 4 µM)
2 | CCc1ccc(C(=O)Nc2nnc(S(N)(=O)=O)s2)cc1 [CAI0017, 4-Ethyl-N-(5-sulfamoyl-1,3,4-thiadiazol-2-yl)benzamide] | > 64 µg/mL | 1 µg/mL (≈ 3.2 µM) | 1 µg/mL (≈ 3.2 µM) | 0.25 µg/mL (≈ 0.8 µM) | 0.25 µg/mL (≈ 0.8 µM) | 1 µg/mL (≈ 3.2 µM) | 1 µg/mL (≈ 3.2 µM) | 1 µg/mL (≈ 3.2 µM) | 1 µg/mL (≈ 3.2 µM) | 1 µg/mL (≈ 3.2 µM) | 1 µg/mL (≈ 3.2 µM) | 1 µg/mL (≈ 3.2 µM) | 1 µg/mL (≈ 3.2 µM) | 1 µg/mL (≈ 3.2 µM) | > 64 µg/mL | > 64 µg/mL | > 64 µg/mL | > 64 µg/mL | > 64 µg/mL | > 64 µg/mL | MIC [16]: 16 µg/mL (≈ 51.2 µM); MIC [17]: 16 µg/mL (≈ 51.2 µM); MIC [18]: 8 µg/mL (≈ 25.6 µM); MIC ([5]; Table 7, read-out: MIC in TSB): 1 µg/mL (≈ 3.2 µM); MIC ([8]; Table 1, read-out: MIC): 0.25 µg/mL (≈ 0.8 µM); MIC ([8]; Table 7, read-out: MIC in TSB): 0.25 µg/mL (≈ 0.8 µM); MIC [19]: 16 µg/mL (≈ 51.2 µM); MIC [20]: 8 µg/mL (≈ 25.6 µM); MIC [21]: 16 µg/mL (≈ 51.2 µM); MIC [22]: 16 µg/mL (≈ 51.2 µM); MIC [23]: 8 µg/mL (≈ 25.6 µM); MIC [24]: 8 µg/mL (≈ 25.6 µM); MIC [25]: 8 µg/mL (≈ 25.6 µM)
3 | CC(=O)NC[C@H]1CN(c2ccc(N3CCOCC3)c(F)c2)C(=O)O1 [Linezolid, reference compound] | 2 µg/mL (≈ 5.93 µM) | 1 µg/mL (≈ 2.96 µM) | 1 µg/mL (≈ 2.96 µM) |  |  | 1 µg/mL (≈ 2.96 µM) | 1 µg/mL (≈ 2.96 µM) |  | 1 µg/mL (≈ 2.96 µM) | 1 µg/mL (≈ 2.96 µM) | 1 µg/mL (≈ 2.96 µM) | 1 µg/mL (≈ 2.96 µM) | 1 µg/mL (≈ 2.96 µM) | 1 µg/mL (≈ 2.96 µM) | ≤ 0.5 µg/mL | 1 µg/mL (≈ 2.96 µM) | 2 µg/mL (≈ 5.93 µM) | 1 µg/mL (≈ 2.96 µM) | ≤ 0.5 µg/mL | 2 µg/mL (≈ 5.93 µM) | MIC [16]: 4 µg/mL (≈ 11.9 µM); MIC [17]: 4 µg/mL (≈ 11.9 µM); MIC [18]: 8 µg/mL (≈ 23.7 µM); MIC [19]: 4 µg/mL (≈ 11.9 µM); MIC [20]: 4 µg/mL (≈ 11.9 µM); MIC [21]: 4 µg/mL (≈ 11.9 µM); MIC [22]: 8 µg/mL (≈ 23.7 µM); MIC [23]: 2 µg/mL (≈ 5.93 µM); MIC [24]: 4 µg/mL (≈ 11.9 µM); MIC [25]: 4 µg/mL (≈ 11.9 µM)
